Like-named read-outs stand apart in the source and are kept apart here.
Assays:
[1] = test system: Conditioned Avoidance Response; experiment: Mouse Conditioned Avoidance Response (C.A.R.); type: in vivo; conditions: po, read-out: C.A.R. (mouse) ED50
Experimental: (§1) Results given in: mg/kg po/mouse mg/kg po/rat
(§2) Mouse and Rat Conditioned Avoidance Response: Mice and rats are trained to jump out of a pit onto a ledge to avoid shock when presented with a light and sound conditioned stimulus. The animals are tested 1, 2, and 4 hours after administration of the test compound. Three to 4 dose levels and groups of 4-8 animals/dose are used. The ED50 is the dose producing a block of the C.A.R. in 50% of the animals. Blocking of the C.A.R. at non-toxic doses appears to correlate with major tranquilizer activity in man.

[2] = test system: amphetamine hyperactivity; experiment: Mouse Anti-Amphetamine Activity (A.A.); type: in vivo; conditions: po, read-out: A.A. (mouse) ED50
Experimental: (§3) Results given in: mg/kg po/mouse
Mouse Anti-Amphetamine Activity: Groups of 5 mice are given d-amphetamine sulfate 5 mg/kg sc 1 hour after oral administration of graded doses of test compound. The mice are placed in photocell activity units immediately after amphetamine administration and locomotor activity is recorded for 60 minutes. The ED50 is calculated as the dose causing a 50% reduction in locomotor activity relative to the activity of the amphetamine-treated control mice. Amphetamine antagonism at non-toxic doses appears to correlate with major tranquilizer activity in man.

[3] = test system: Conditioned Avoidance Response; experiment: Dog Conditioned Avoidance Response (C.A.R.); type: in vivo; conditions: po; for ED50: Canis lupus familiaris, read-out: C.A.R. (dog) ED50
Experimental: Results given in: mg/kg po/dog
Dog Conditioned Avoidance Response: Dogs are trained to raise a forelimb when presented with a conditioned stimulus (light) in order to avoid an electric shock. Blocks of 10 trials are given to groups of four dogs during a pretreatment period and at 1, 2, and 4 hours after oral administration of test compound. The ED50 values are calculated as the dose causing 50% of the animals to show five or more incorrect responses. Blocking of the C.A.R. at non-toxic doses appears to correlate with major tranquilizer activity in man.

[4] = test system: Conditioned Avoidance Response; experiment: Rat Conditioned Avoidance Response (C.A.R.); type: in vivo; conditions: po, read-out: C.A.R. (rat) ED50
Experimental: as §1, §2

approach-behavior = experiment: Rhesus Monkey Approach Effects; type: in vivo; conditions: po; for minimal effective dose: Macaca mulatta, read-out: Approach (monkey) MED
Experimental: (§4) Results given in: mg/kg po/monkey
Rhesus Monkey Approach Effects: Compounds are administered orally to groups of six rhesus monkeys. The behavior of the animals is then evaluated by observational means. […] The MED is the oral dose at which the animals show signs of decreased fear.

locomotor activity = experiment: Mouse Screen (decrease in locomotor activity); type: in vivo; conditions: Mus musculus, po, read-out: Screen (mouse) MED
Text: as §3
Mouse Screen: The minimal effective dose (MED) is the lowest oral dose producing an obvious decrease in locomotor activity, using observational techniques. Groups of 3 mice are given decreasing oral doses at 0.5 log intervals (300, 100, 30 . . . etc.) until no behavioral effects are evident. Decrease of locomotor activity is indicative of general central nervous system depressant activity.

[5] = test system: approach-avoidance ("conflict") situation; experiment: Rat Conflict (Approach-Avoidance) Test; type: in vivo; conditions: for minimal effective dose: read-out: Conflict (rat) MED
Experimental: Results given in: mg/kg po/rat
Rat Conflict (Approach-Avoidance) Test: Food deprived rats are trained to pass from one compartment to an adjacent one to obtain food. The training consists of three exposures to the test situation on day one of the experiment. The rats are given limited (1-2 hr) free access to food in their home cages on day one and are then food deprived for at least 18 hours. On day two of the experiment, the rats are given a control exposure to the test situation followed by a second exposure after 1/2 to 1 hour in which they are shocked after crossing and eating. Groups of 6-8 rats are then dosed orally with solvent or test compound and then reexposed to the test situation after 1 or 2 hours.
This effect is dose-related (and the MED is the minimum dose at which this effect is obtained); rats dosed with solvent only consistently show a high level of fear as evidenced by decreased mobility and absence of feeding when placed in the test situation after receiving a shock.

taming = experiment: Rhesus Monkey Taming Effects; type: in vivo; conditions: po; for minimal effective dose: Macaca mulatta, read-out: Taming (monkey) MED
Experimental: as §4
Rhesus Monkey Taming Effects: Compounds are administered orally to groups of six rhesus monkeys. The behavior of the animals is then evaluated by observational means. Taming effects are determined by the ability of the observer to approach and touch the monkey. Compounds with major tranquilizer activity in man can produce a state of passive tameness in the rhesus monkey wherein it can be touched without provoking any of the threatening or aggressive behavior seen in the normal animal. The MED is the minimal oral dose at which some taming effect can be observed.

Water solubility = type: physicochemical; conditions: methanesulfonate salt

Work on `CN(C)CCCN1c2ccccc2Sc2ccc(Cl)cc21` [chlorpromazine, reference compound] yielded an ED50 ([1]; Mus musculus, 4 h) of 5 mg/kg, an ED50 ([2]; Mus musculus, 1 h) of 5 mg/kg and an ED50 ([3]; 4 h) of 6 mg/kg. The ED50 ([4]; Rattus norvegicus, 4 h) was 10 mg/kg, the “Approach (monkey) MED, symbol” value (approach-behavior; rhesus monkey) was “I” and the minimal effective dose (locomotor activity) was 3 to 10 mg/kg. The “Conflict (rat) MED, symbol” value ([5]; po, rat) was “I” and the minimal effective dose (taming) was 10 to 30 mg/kg.

For `CN1C(=O)CN=C(c2ccccc2)c2cc(Cl)ccc21` [diazepam, reference compound], the “C.A.R. (dog) ED50, symbol” value ([3]; dog) was “I”, the minimal effective dose (approach-behavior) was 3 to 10 mg/kg and the minimal effective dose (locomotor activity) was 3 to 10 mg/kg. The minimal effective dose ([5]; Rattus norvegicus, po) was 3 to 10 mg/kg, the “decreased fear in the test animals, in words” value ([5]; rats cross to obtain food despite earlier shock, dose-related) was “apparent decreased fear in the test animals” and the “Taming (monkey) MED, symbol” value (taming; rhesus monkey) was “I”.

In the case of `c1ccc2c(c1)CCc1cccc3c4c(n-2c13)CCN(CC1CC1)C4` [No. 3, 3-(cyclopropylmethyl)-1,2,3,4,8,9-hexahydropyrido[4',3':2,3]indolo[1,7-ab][1]benzazepine], the ED50 ([1]; mouse, tested 1, 2, and 4 hours after administration) is reported as 20 mg/kg, the ED50 ([2]; mouse, d-amphetamine sulfate 5 mg/kg sc 1 hour after compound, 60 minutes recording) is reported as 6 mg/kg and the ED50 ([3]; dog, 1, 2, and 4 hours after administration) is reported as > 20 mg/kg. For the same compound, the ED50 ([4]; rat, tested 1, 2, and 4 hours after administration) was 40 mg/kg, the minimal effective dose (approach-behavior; rhesus monkey) was 1 to 3 mg/kg and the minimal effective dose (locomotor activity) was 30 to 100 mg/kg. For the same compound, the minimal effective dose ([5]; po, rat, reexposed after 1 or 2 hours) was 10 to 20 mg/kg and the minimal effective dose (taming; rhesus monkey) was 3 to 10 mg/kg.

For `CS(=O)(=O)O.c1ccc2c(c1)CCc1cccc3c4c(n-2c13)CCN(CC1CC1)C4` [3-(cyclopropylmethyl)-1,2,3,4,8,9-hexahydropyrido[4',3':2,3]indolo[1,7-ab][1]benzazepine methanesulfonate], the solubility (Water solubility) was > 500 mg/mL.
